This passage reports target mRNA inhibition results from the OligoGym collection.

This series deals with SOD1. The following applies: ASO.

Where “and” joins values, the source holds several entries; their conditions need not be identical. Equal entries are not always repeated. After the bases stand the sugars from the 5' end (letter, count) and the backbone: PS all phosphorothioate, else s phosphorothioate and o phosphodiester by linkage. Methylation of C is not given here. e = 2'-O-(2-methoxyethyl) (MOE); k = constrained ethyl (cEt); d = 2'-deoxy (DNA)

For the sequence “ATGTTTATCAGGATACA (sugars e2 k2 d9 k2 e2, linkages s1 o3 s9 o1 s2)”, the target mRNA inhibition runs as follows: (A431, 0.12 µM) 1%; (A431, 0.6 µM) 4%; (A431, 3 µM) 21%; (A431, 15 µM) 29%; (HepG2, 0.222 µM) 47%; (HepG2, 0.667 µM) 71%. In addition, the target mRNA inhibition runs as follows: (HepG2, 2 µM) 92%; (HepG2, 6 µM) 82%.
For the sequence “TACAGGGTTTTTATTCA (sugars e2 k2 d8 k2 e3, PS)”, where the note is “HepG2, 5 µM”, the target mRNA inhibition amounted to 13%.
“TACAGCTAGCAGGATAA (sugars e2 k2 d9 k2 e2, PS)”: the target mRNA inhibition by setting is: (HepG2, 0.1875 µM) 24%; (HepG2, 0.75 µM) 71%; (HepG2, 3 µM) 85%; (HepG2, 4 µM) 86%; (HepG2, 12 µM) 98%.
In the case of “GTGTTTAATGTTTATCA (sugars e2 k2 d8 k2 e3, PS)”, the target mRNA inhibition was 44% (HepG2, 0.1875 µM); 71% (HepG2, 0.75 µM); 83% (HepG2, 3 µM); 86% (HepG2, 5 µM); 84% (HepG2, 12 µM).
Take “GATACATTTCTACAGCT (sugars e2 k2 d8 k2 e3, PS)”: the target mRNA inhibition (HepG2, 4 µM) stood at 64%.
On to “AGGATACATTTCTACAGC (sugars e5 d8 e5, linkages s1 o3 s9 o2 s2)”, for which the target mRNA inhibition runs as follows: (A431, 0.12 µM) 42%; (A431, 0.6 µM) 23%; (A431, 3 µM) 26%; (A431, 15 µM) 45%; (HepG2, 0.222 µM) 9%; (HepG2, 0.667 µM) 43%. The target mRNA inhibition runs as follows: (HepG2, 2 µM) 65%; (HepG2, 6 µM) 86%.
Regarding “GTGTTTAATGTTTATCA (sugars e2 k2 d9 k2 e2, PS)”, the target mRNA inhibition came out at 42% (HepG2, 0.1875 µM); 68% (HepG2, 0.75 µM); 86% (HepG2, 3 µM); 86% (HepG2, 5 µM); 89% (HepG2, 12 µM).
The sequence “GATAACAGATGAGTTAA (sugars e2 k2 d9 k2 e2, PS)” gave a target mRNA inhibition (HepG2, 4 µM) of 28%.
Regarding “TCTTCATCCTTTGGCCC (sugars e3 k2 d7 k2 e3, PS)”, the target mRNA inhibition (HepG2, 3 µM) was 15%.
Consider “GTTTAATGTTTATCAG (sugars ekddddddddekekee, linkages s1 o1 s8 o3 s2)”, for which the target mRNA inhibition is, setting by setting: (A431, 0.12 µM) 2%; (A431, 0.6 µM) 19%; (A431, 3 µM) 33%; (A431, 15 µM) 62%; (HepG2, 0.222 µM) 44%; (HepG2, 0.667 µM) 63%. The target mRNA inhibition is 82% (HepG2, 2 µM) and 94% (HepG2, 6 µM).
For the sequence “TTCCCCACACCTTCACTG (sugars e5 d8 e5, linkages s1 o3 s9 o2 s2)”, the target mRNA inhibition (A431, 0.12 µM) worked out at 2%; the target mRNA inhibition (A431, 0.6 µM) turned out to be 0%; the target mRNA inhibition (A431, 3 µM) was 0%; the target mRNA inhibition (A431, 15 µM) turned out to be 9%; the target mRNA inhibition (HepG2, 0.222 µM) came out at 7%; the target mRNA inhibition (HepG2, 0.667 µM) was found to be 4%. Besides, the target mRNA inhibition (HepG2, 2 µM) amounted to 42% and the target mRNA inhibition (HepG2, 6 µM) stood at 17%.
“TACAGGTCATTGAAACA (sugars e2 k2 d8 k2 e3, PS)”: the target mRNA inhibition (HepG2, 5 µM) is 26%.
Turning to “TAATGTTTATCAGGATA (sugars e2 k2 d8 k2 e3, linkages s1 o2 s9 o2 s2)”, the target mRNA inhibition by setting is: (A431, 0.12 µM) 0%; (A431, 0.6 µM) 38%; (A431, 3 µM) 54%; (A431, 15 µM) 68%; (HepG2, 0.222 µM) 64%; (HepG2, 0.667 µM) 89%. The sequence further displayed a target mRNA inhibition (HepG2, 2 µM) of 94% and a target mRNA inhibition (HepG2, 6 µM) of 92%.
In turn, “AGGATTAAAGTGAGGAC (sugars e3 k2 d7 k2 e3, PS)” registered a target mRNA inhibition (HepG2, 3 µM) of 23%.
With “ACTGCAACGGAAACCCCAGA (sugars e5 d10 e5, PS)”, the target mRNA inhibition (HepG2, 4 µM) was 43%.
For the sequence “CTTTTAAGATTACAGTG (sugars e2 k2 d9 k2 e2, PS)”, the target mRNA inhibition (HepG2, 5 µM) came out at 53%.
Still for that read-out and setting: next, “ATACAGGTCATTGAAAC (sugars e2 k2 d8 k2 e3, PS)”: 33%.
As for “CAGACTACATCCAAGGG (sugars e2 k2 d9 k2 e2, PS)”, the target mRNA inhibition worked out at 28% (HepG2, 0.1875 µM); 55% (HepG2, 0.75 µM); 74% (HepG2, 3 µM); 78% (HepG2, 4 µM); 91% (HepG2, 12 µM).
For “AGACCTCCGCGCCTCGCCCA (sugars e5 d10 e5, PS)”, the target mRNA inhibition (HepG2, 12 µM) came to 84%.
In turn, “GACAAGTTTAATACCCA (sugars e2 k2 d8 k2 e3, PS)” displayed a target mRNA inhibition (HepG2, 5 µM) of 54%.
In the case of “AAGATTACAGTGTTTAA (sugars e3 k2 d7 k2 e3, PS)”, the target mRNA inhibition (HepG2, 3 µM) is 34%.
“TGACAAGTTTAATACCC (sugars e2 k2 d8 k2 e3, PS)” came in with a target mRNA inhibition (HepG2, 5 µM) of 43%.
“CCCTTCAGCACGCACACGGC (sugars e5 d10 e5, PS)”: the target mRNA inhibition by setting is: (HepG2, 0.1875 µM) 17%; (HepG2, 0.75 µM) 26%; (HepG2, 3 µM) 59%; (HepG2, 4 µM) 37%; (HepG2, 12 µM) 83%.
In turn, “TTGCCCAAGTCATCTGC (sugars e3 k2 d7 k2 e3, PS)” came in with a target mRNA inhibition (HepG2, 3 µM) of 92%.
The sequence “ACAGGTACTTTAAAGCA (sugars e2 k2 d9 k2 e2, PS)” yielded a target mRNA inhibition (HepG2, 5 µM) of 20%.
On the same count and under the same terms, under “TTACACTTTTAAGATTACAG (sugars e5 d10 e5, PS)” stands 0%.
Turning to “GTGTTTAATGTTTATCAG (sugars e5 d8 e5, linkages s1 o3 s9 o2 s2)”, the target mRNA inhibition reads like this: (A431, 0.12 µM) 1%; (A431, 0.6 µM) 15%; (A431, 3 µM) 36%; (A431, 15 µM) 50%; (HepG2, 0.222 µM) 20%; (HepG2, 0.667 µM) 43%. Also, the target mRNA inhibition (HepG2, 2 µM) was 56% and the target mRNA inhibition (HepG2, 6 µM) is 81%.
“TTTATTGGGCGATCCCA (sugars e3 k2 d7 k2 e3, PS)” came in with a target mRNA inhibition (HepG2, 3 µM) of 20%.
The same measure, in the same setting: next, “TTTCCACCTTTGCCCAA (sugars e3 k2 d7 k2 e3, PS)”: 78%; “GAGTTTTATAAAACTAT (sugars e3 k2 d7 k2 e3, PS)”: 6%.
The same measure, in the same setting: next, “CTGGCAAAATACAGGTC (sugars e3 k2 d7 k2 e3, PS)”: 18%.
Take “TTTATTCACAGGCTTGA (sugars e2 k2 d8 k2 e3, PS)”: for the setting “HepG2, 5 µM”, the target mRNA inhibition amounted to 44%.
The same measure, in the same setting: next, “AAGTGCCATACAGGGTT (sugars e2 k2 d9 k2 e2, PS)”: 21%; “CCATACAGGGTTTTTAT (sugars e2 k2 d9 k2 e2, PS)”: 34%; “CTTTTAAGATTACAGTG (sugars e2 k2 d8 k2 e3, PS)”: 62%.
As for “AGTGAGGACCTGCACTG (sugars e3 k2 d7 k2 e3, PS)”, the target mRNA inhibition (HepG2, 3 µM) is 21%.
The same measure, in the same setting: under “TCTCTTCATCCTTTGGC (sugars e3 k2 d7 k2 e3, PS)” stands 14%.
For the setting “HepG2, 4 µM”, “CTACGACGCAAACCAGCACC (sugars e5 d10 e5, PS)” displayed a target mRNA inhibition of 19%.
For the setting “HepG2, 3 µM”, “CAACATGCCTCTCTTCA (sugars e3 k2 d7 k2 e3, PS)” displayed a target mRNA inhibition of 3%.
Same read-out and setting: next, “CAAAATACAGGTCATTG (sugars e3 k2 d7 k2 e3, PS)”: 23%.
“GAATGTTTATTGGGCGA (sugars e2 k2 d8 k2 e3, PS)” came in with a target mRNA inhibition (HepG2, 4 µM) of 47%.
Consider “AATACCCATCTGTGATTTAA (sugars e5 d10 e5, PS)”, for which the target mRNA inhibition (HepG2, 5 µM) stood at 0%.
As to “GGCCTCAGACTACATCC (sugars e3 k2 d7 k2 e3, PS)”, where the note is “HepG2, 3 µM”, the target mRNA inhibition is 24%.
In the case of “GTGTTTAATGTTTATCA (sugars e2 k2 d9 k2 e2, linkages s1 o3 s9 o1 s2)”, the target mRNA inhibition was 22% (A431, 0.12 µM); 57% (A431, 0.6 µM); 73% (A431, 3 µM); 84% (A431, 15 µM); 58% (HepG2, 0.222 µM); 68% (HepG2, 0.667 µM). Also, the target mRNA inhibition reads like this: (HepG2, 2 µM) 96%; (HepG2, 6 µM) 83%.
Turning to “CTATACAAATCTTCCAA (sugars e3 k2 d7 k2 e3, PS)”, where the note is “HepG2, 3 µM”, the target mRNA inhibition was found to be 13%.
“CTCGCCCACTCTGGCCCCAA (sugars e5 d10 e5, PS)” registered a target mRNA inhibition (HepG2, 4 µM) of 45%.
For the sequence “TCTGACAAGTTTAATAC (sugars e2 k2 d8 k2 e3, PS)”, under “HepG2, 5 µM”, the target mRNA inhibition amounted to 33%.
Regarding “TTTTTTAGTTTGAATTTGGA (sugars e5 d10 e5, PS)”, the target mRNA inhibition (HepG2, 5 µM) is 0%.
As for “GAGGACCTGCACTGGTA (sugars e3 k2 d7 k2 e3, PS)”, the target mRNA inhibition (HepG2, 3 µM) amounted to 17%.
Sequence “CAAGGGAATGTTTATTG (sugars e2 k2 d8 k2 e3, PS)” registered a target mRNA inhibition (HepG2, 4 µM) of 43%.
On the same count and under the same terms, under “ATTACACCACAAGCCAA (sugars e2 k2 d9 k2 e2, PS)” stands 63%.
Turning to “TTACAGTGTTTAATGTTT (sugars e5 d8 e5, linkages s1 o3 s9 o2 s2)”, the target mRNA inhibition is 4% (A431, 0.12 µM); 0% (A431, 0.6 µM); 33% (A431, 3 µM); 17% (A431, 15 µM); 17% (HepG2, 0.222 µM); 42% (HepG2, 0.667 µM). The target mRNA inhibition by setting is: (HepG2, 2 µM) 76%; (HepG2, 6 µM) 54%.
Regarding “AGGATACATTTCTACAGCTA (sugars e5 d10 e5, PS)”, the target mRNA inhibition was 29% (HepG2, 0.1875 µM); 47% (HepG2, 0.75 µM); 82% (HepG2, 3 µM); 56% (HepG2, 4 µM); 79% (HepG2, 5 µM); 80% and 96% (HepG2, 12 µM).
Consider “TGGGCGATCCCAATTAC (sugars e3 k2 d7 k2 e3, PS)”, for which the target mRNA inhibition (HepG2, 3 µM) came out at 20%.
